The values below come from patent US12673918B2, “Small molecule RPN13 inhibitors with antitumor properties” (The Johns Hopkins University, priority 2019, dated 2026).

One data set deals with BR5-Luc. The data set can be described thus: MTT cytotoxicity assay, BR5-Luc. The conditions noted are these: read-out: cytotoxicity IC50 BR5-Luc, Tables 3A/4B/4C, BRCA2 − VE. For orientation: Formazan colour is commonly taken as a measure of viable cells.
A further data set has as its system BR5-FvB1. The data set can be described thus: MTT cytotoxicity assay, BR5-FvB1. The conditions noted are these: Mus musculus, read-out: cytotoxicity IC50 BR5-FvB1.
The subject of a further data set is HeLa. The data set can be described thus: MTT cytotoxicity assay, HeLa. The conditions noted are these: read-out: cytotoxicity IC50 HeLa, Tables 3A/4B/4C.
The subject of a further data set is SKOV3. The data set can be described thus: MTT cytotoxicity assay, SKOV3. The conditions noted are these: read-out: cytotoxicity IC50 SKOV3; Tables 3A/4B/4C; MTT assay.
The test system of the next data set is HeLa cells. The data set can be described thus: XTT cytotoxicity assay, HeLa. Type of data set: cell-based, human. The conditions noted are these: Table 1; XTT assay; read-out: IC50 HeLa. The source says: (§1) The impact of substituents of the aromatic ring on the potency of molecules was also examined. The presence of either an electron withdrawing group (EWG) or an electron donating group (EDG) influences the reactivity of a Michael acceptor towards the target protein but can also impact specificity/selectivity.

Another data set deals with SKOV3 cells. In words: XTT cytotoxicity assay, SKOV3. Type of data set: cell-based, human. The conditions noted are these: Table 1; XTT assay; read-out: IC50 SKOV3.
Text: as §1

Procedure for BR5-FvB1: Cell lines and cytotoxicity assays: All cell lines were obtained from the American Type Culture Collection (ATCC) and cultured in the specified medium supplemented with 10% fetal bovine serum, 100 IU/mL penicillin, and 100 μg/mL streptomycin at 37° C. in a humidified 5% CO2/95% air incubator. […] To assess drug cytotoxicity, cells were seeded at 2,500 cells/well (10,000 cells/well for MM lines) in 100 μL medium in 96-well plate and after 24 treated with compounds for 72 h, incubated according to the manufacturer's protocol with the Thiazolyl Blue Tetrazolium Bromide (Sigma, M2128) and A570 measured using a Benchmark Plus microplate spectrophotometer (BIO-RAD). IC50 data was analyzed by Graphpad Prism software. In the chirality studies the cells were treated with compounds for 48 h, and the cells were incubated and measured via the preceeding protocols.

Regarding `COc1cccc2c1C(=O)c1c(O)c3c(c(O)c1C2=O)C[C@@](O)(C(=O)CO)C[C@@H]3O[C@H]1C[C@H](N)[C@H](O)[C@H](C)O1` [DOX, Doxorubicin], the IC50 in the data set on BR5-Luc is 237 nM; with BR5-FvB1 it was below 20 nM.

`CC1NCC(=Cc2ccc([N+](=O)[O-])cc2)C(=O)C1=Cc1ccc([N+](=O)[O-])cc1` (racemic) [RA411]: the IC50 was 16 nM in the data set on HeLa and 257 nM in the data set on SKOV3.

As to `O=C1C(=Cc2ccc([N+](=O)[O-])cc2)CN(C(=O)C(Cc2ccccc2)NC(=O)C(F)(F)F)CC1=Cc1ccc([N+](=O)[O-])cc1` (stereo not drawn) [RA183CF3], the IC50 with HeLa cells is 45 nM; in the data set on SKOV3 cells it was 79 nM.

Regarding `NC(Cc1ccc(O)cc1)C(=O)N1CC(=Cc2ccc(Cl)c(Cl)c2)C(=O)C(=Cc2ccc(Cl)c(Cl)c2)C1` (stereo not drawn) [RA295], the IC50 in the data set with HeLa cells was 89 nM; with SKOV3 cells, 116 nM.

Turning to `O=C1C(=Cc2ccc(Cl)c(Cl)c2)CN(C(=O)C(Cc2ccccc2)NC(=O)c2ccccn2)CC1=Cc1ccc(Cl)c(Cl)c1` (stereo not drawn) [RA190P], the figures for the IC50 in the data set on HeLa cells and in the data set on SKOV3 cells were 55 nM and 64 nM, respectively.

As for `O=C1C(=Cc2ccc(O)c(O)c2)CNCC1=Cc1ccc(O)c(O)c1` [DHBC], the IC50 came out at 667 nM in the data set on HeLa cells and 788 nM with SKOV3 cells.

As for `COc1cc(C(=O)NC(Cc2ccccc2)C(=O)N2CC(=Cc3ccc(Cl)c(Cl)c3)C(=O)C(=Cc3ccc(Cl)c(Cl)c3)C2)cc(OC)c1OC` (stereo not drawn) [RA190TMB], the IC50 in the data set on HeLa cells came to 94 nM; in the data set on SKOV3 cells, 112 nM.

Take `O=C(Nc1ccccc1)NC(Cc1ccccc1)C(=O)N1CC(=Cc2ccc(Cl)c(Cl)c2)C(=O)C(=Cc2ccc(Cl)c(Cl)c2)C1` (stereo not drawn) [RA234]: the IC50 in the data set on HeLa cells was found to be 143 nM; in the data set on SKOV3 cells, 235 nM.

`NCCCCCC(=O)NC(Cc1ccccc1)C(=O)N1CC(=Cc2ccc(Cl)c(Cl)c2)C(=O)C(=Cc2ccc(Cl)c(Cl)c2)C1` (stereo not drawn) [RA190AHA]: the values for the IC50 in the data set on HeLa cells and in the data set with SKOV3 cells were 62 nM and 88 nM, respectively.
